Assay results as given in ChEMBL document CHEMBL1201862, “PubChem BioAssay data set” (2004).
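Briefly, cells in 96-well plates were exposed to five compound concentrations for 48 h, and endpoints were estimated by linear interpolation. The concentration for 50% growth inhibition is given as GI50.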 The source made the active and inactive calls. Cut-off read from the data, not from the text of the source: active = GI50 up to about 1.1 µM and inactive = higher.

Legend:
Assay in all cases: DTP human tumour cell line panel, 48 h
SK-MEL-2 = tested on: SK-MEL-2
SK-MEL-28 = tested on: SK-MEL-28
UACC-257 = tested on: UACC-257
SW-620 = tested on: SW-620
OVCAR-3 = tested on: OVCAR-3
SF-539 = tested on: SF-539
LOX IMVI = tested on: LOX IMVI
NCI-H460 = tested on: NCI-H460
A549 = tested on: A549
TK-10 = tested on: TK-10
A498 = tested on: A498
NCI-H23 = tested on: NCI-H23
M14 = tested on: M14
UACC-62 = tested on: UACC-62
OVCAR-5 = tested on: OVCAR-5
MDA-MB-231 = tested on: MDA-MB-231
IGROV-1 = tested on: IGROV-1
NCI/ADR-RES = tested on: NCI/ADR-RES
HCT-116 = tested on: HCT-116
HCC 2998 = tested on: HCC 2998

Measured: GI50

Clc1sc(Cl)c2c1[C@@H](Cl)C[C@@H]2Cl
inactive: SK-MEL-2 > 100 µM | SK-MEL-28 84.9 µM | UACC-257 > 100 µM | SW-620 57.1 µM | OVCAR-3 > 100 µM | SF-539 > 100 µM | LOX IMVI 49.4 µM | NCI-H460 92.9 µM | A549 61.9 µM | TK-10 > 100 µM | A498 > 100 µM | NCI-H23 53.8 µM | M14 > 100 µM | UACC-62 13.4 µM | OVCAR-5 > 100 µM | MDA-MB-231 > 100 µM | IGROV-1 48.1 µM | NCI/ADR-RES > 100 µM | HCT-116 53.5 µM | HCC 2998 63.4 µM

CCOC(=O)c1[nH]cc(C)c1-c1ccc2c(-c3ccccc3)nc3ccccc3n12
inactive: SK-MEL-2 4.29 µM | SK-MEL-28 3.89 µM | UACC-257 5.3 µM | SW-620 3.13 µM | OVCAR-3 4.13 µM | SF-539 3.12 µM | LOX IMVI 3.44 µM | NCI-H460 2.92 µM | A549 3.77 µM | TK-10 3.21 µM | A498 2.84 µM | NCI-H23 5.05 µM | M14 5.55 µM | UACC-62 2.73 µM | OVCAR-5 15.8 µM | MDA-MB-231 3.13 µM | IGROV-1 3.66 µM | NCI/ADR-RES 2.51 µM | HCT-116 3.19 µM | HCC 2998 2.26 µM

CNC(=O)N(C)C(=O)c1ccccc1C(=O)N(C)C(=O)NC
inactive: SK-MEL-2 > 10 µM | SK-MEL-28 > 10 µM | UACC-257 > 10 µM | SW-620 > 10 µM | OVCAR-3 > 10 µM | SF-539 > 10 µM | LOX IMVI > 10 µM | NCI-H460 > 10 µM | A549 > 10 µM | TK-10 > 10 µM | A498 > 10 µM | NCI-H23 > 10 µM | M14 > 10 µM | UACC-62 > 10 µM | OVCAR-5 > 10 µM | MDA-MB-231 > 10 µM | IGROV-1 > 10 µM | NCI/ADR-RES > 10 µM | HCT-116 > 10 µM | HCC 2998 > 10 µM

CCOC(=O)c1cc(C)n(CN(CCO)Cn2nc(C(=O)OCC)cc2C)n1
inactive: SK-MEL-2 19.9 µM | SK-MEL-28 40.7 µM | UACC-257 29.2 µM | SW-620 28.3 µM | OVCAR-3 26 µM | SF-539 17.7 µM | LOX IMVI 27.5 µM | NCI-H460 66.5 µM | A549 97.3 µM | TK-10 80.2 µM | A498 > 100 µM | NCI-H23 21.1 µM | M14 18.5 µM | UACC-62 17.8 µM | OVCAR-5 19.5 µM | MDA-MB-231 27.9 µM | IGROV-1 29.4 µM | NCI/ADR-RES 18.7 µM | HCT-116 18.3 µM | HCC 2998 11.8 µM

CC(=O)OC(CN1CCN(c2ccccn2)CC1)Cn1sc2nc(C)cc(C)c2c1=O (stereo not given)
inactive: SK-MEL-2 18.3 µM | SK-MEL-28 20 µM | UACC-257 17.7 µM | SW-620 26.4 µM | OVCAR-3 21.2 µM | SF-539 14.6 µM | LOX IMVI 21.3 µM | NCI-H460 18.5 µM | A549 20.6 µM | TK-10 17.3 µM | A498 18.1 µM | NCI-H23 20.8 µM | M14 16.5 µM | UACC-62 16.4 µM | OVCAR-5 17.5 µM | MDA-MB-231 17.9 µM | IGROV-1 18.2 µM | NCI/ADR-RES 27 µM | HCT-116 16.3 µM | HCC 2998 19.5 µM

CC1(C=O)CC(CCc2ccccc2)NC1Cc1ccc(O)cc1 (stereo not given)
inactive: SK-MEL-2 14.8 µM | SK-MEL-28 22.1 µM | UACC-257 15.1 µM | SW-620 23.3 µM | OVCAR-3 17 µM | SF-539 15.3 µM | LOX IMVI 17 µM | NCI-H460 16.6 µM | A549 15.4 µM | TK-10 17.3 µM | A498 14.6 µM | NCI-H23 23 µM | M14 15.6 µM | UACC-62 16.6 µM | OVCAR-5 17.4 µM | MDA-MB-231 13.6 µM | IGROV-1 14 µM | NCI/ADR-RES 18.8 µM | HCT-116 15.6 µM | HCC 2998 11.6 µM

COc1cc(OC)c2nc(C)c3c(c2c1)NCC3
inactive: SK-MEL-2 9.42 µM | SK-MEL-28 15.2 µM | UACC-257 3.91 µM | SW-620 4.42 µM | OVCAR-3 10.2 µM | SF-539 4.32 µM | LOX IMVI 3.25 µM | NCI-H460 3.33 µM | A549 11.8 µM | TK-10 7.91 µM | A498 13.7 µM | NCI-H23 6.34 µM | M14 11.6 µM | UACC-62 9.16 µM | OVCAR-5 6.28 µM | MDA-MB-231 7.76 µM | IGROV-1 9.75 µM | NCI/ADR-RES 18.4 µM | HCT-116 3.47 µM | HCC 2998 7.83 µM
